Here are results for 2 compounds from BindingDB's records for doi:10.1021/jm00107a050 (Merck Research Laboratories, 1991).

The term IC50 denotes the concentration needed to halve the response being measured. Low readings indicate greater potency, high ones weaker potency.

In the test the target is T1, Dimer of Gag-Pol polyprotein [489-587] (Human immunodeficiency virus 1, UniProt P12497).
T1 construct: 489-587
Briefly: Protease Inhibition Assay. As to conditions: pH 5.5; 30 °C. On the procedure:
Sensitivity of HIV-1 protease activity to protease inhibitors was determined by a peptide substrate cleavage assay. Protease products were analyzed on a reverse-phase high-pressure liquid chromatograph.

Molecules are shown by their SMILES.

For the compound `CCC(C)C(NC(=O)[C@H](C/C=C/c1ccccc1)C[C@H](O)[C@H](Cc1ccccc1)NC(=O)OC(C)(C)C)C(=O)NCc1nc2ccccc2[nH]1` (stereo partly drawn) [tert-butyl N-[(2S,3S,5R)-5-({1-[(1H-1,3-benzodiazol-2-ylmethyl)carbamoyl]-2-methylbutyl}carbamoyl)-3-hydroxy-1-phenyl-5-[(2E)-3-phenylprop-2-en-1-yl]pentan-2-yl]carbamate], the midpoint of inhibition, the IC50, lay at 0.03 nM. That is a picomolar value.
Under `CCC(C)C(NC(=O)[C@H](Cc1ccccc1)C[C@H](O)[C@H](Cc1ccccc1)NC(=O)OC(C)(C)C)C(=O)NCc1nc2ccccc2[nH]1` (stereo partly drawn) [tert-butyl N-[(2S,3S,5R)-5-({1-[(1H-1,3-benzodiazol-2-ylmethyl)carbamoyl]-2-methylbutyl}carbamoyl)-5-benzyl-3-hydroxy-1-phenylpentan-2-yl]carbamate] stands 0.07 nM.
